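Assay format: 96-well plates, 48-hour exposure. GI50 marks 50% less growth.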 The source made the active and inactive calls. Cut-off read from the data, not from the text of the source: active = GI50 up to about 1.1 µM and inactive = higher.
Tests used:
Test in all cases: growth of human tumour cells (NCI), 48 h
786-0 = system: 786-0
A498 = system: A498
A549 = system: A549
ACHN = system: ACHN
BT-549 = system: BT-549
CAKI-1 = system: CAKI-1
CCRF-CEM = system: CCRF-CEM
COLO 205 = system: COLO 205
DU-145 = system: DU-145
EKVX = system: EKVX
HCC 2998 = system: HCC 2998
HCT-116 = system: HCT-116
HCT-15 = system: HCT-15
HL-60 = system: HL-60
HOP-62 = system: HOP-62
HOP-92 = system: HOP-92
HT-29 = system: HT-29
Hs-578T = system: Hs-578T
IGROV-1 = system: IGROV-1
K562 = system: K562
KM12 = system: KM12
LOX IMVI = system: LOX IMVI
MCF7 = system: MCF7
MDA-MB-231 = system: MDA-MB-231
MDA-MB-435 = system: MDA-MB-435
MDA-N = system: MDA-N
MOLT-4 = system: MOLT-4
Malme-3M = system: Malme-3M
NCI-H226 = system: NCI-H226
NCI-H23 = system: NCI-H23
NCI-H460 = system: NCI-H460
NCI-H522 = system: NCI-H522
NCI/ADR-RES = system: NCI/ADR-RES
OVCAR-3 = system: OVCAR-3
OVCAR-4 = system: OVCAR-4
OVCAR-5 = system: OVCAR-5
OVCAR-8 = system: OVCAR-8
PC-3 = system: PC-3
RPMI-8226 = system: RPMI-8226
RXF 393 = system: RXF 393
SF-268 = system: SF-268
SF-295 = system: SF-295
SF-539 = system: SF-539
SK-MEL-28 = system: SK-MEL-28
SK-MEL-5 = system: SK-MEL-5
SN12C = system: SN12C
SNB-19 = system: SNB-19
SNB-75 = system: SNB-75
SR = system: SR
SW-620 = system: SW-620
TK-10 = system: TK-10
U-251 = system: U-251
UACC-257 = system: UACC-257
UO-31 = system: UO-31
M14 = system: M14
SK-MEL-2 = system: SK-MEL-2
SK-OV-3 = system: SK-OV-3
T47D = system: T47D
UACC-62 = system: UACC-62

For `Nc1nc(O)c([I+]c2ccccc2)c(=O)[nH]1`, the GI50 (786-0) was > 100 µM (inactive), the GI50 (A498) was > 100 µM (inactive) and the GI50 (A549) was > 100 µM (inactive). The GI50 (ACHN) was > 100 µM (inactive), the GI50 (BT-549) was 57.1 µM (inactive) and the GI50 (CAKI-1) was > 100 µM (inactive). For the same molecule, the GI50 (CCRF-CEM) was > 100 µM (inactive), the GI50 (COLO 205) was > 100 µM (inactive) and the GI50 (DU-145) was > 100 µM (inactive). The GI50 (EKVX) was > 100 µM (inactive), the GI50 (HCC 2998) was > 100 µM (inactive) and the GI50 (HCT-116) was > 100 µM (inactive). For the same molecule, the GI50 (HCT-15) was > 100 µM, the GI50 (HL-60) was > 100 µM (inactive) and the GI50 (HOP-62) was > 100 µM (inactive). The GI50 (HOP-92) was > 100 µM (inactive), the GI50 (HT-29) was > 100 µM (inactive) and the GI50 (Hs-578T) was > 100 µM (inactive). For the same molecule, the GI50 (IGROV-1) was > 100 µM (inactive), the GI50 (K562) was > 100 µM (inactive) and the GI50 (KM12) was > 100 µM (inactive). The GI50 (LOX IMVI) was > 100 µM (inactive), the GI50 (MCF7) was > 100 µM (inactive) and the GI50 (MDA-MB-231) was > 100 µM (inactive). For the same molecule, the GI50 (MDA-MB-435) was > 100 µM (inactive), the GI50 (MDA-N) was > 100 µM (inactive) and the GI50 (MOLT-4) was > 100 µM (inactive). For the same molecule, the GI50 (Malme-3M) was > 100 µM (inactive), the GI50 (NCI-H226) was > 100 µM (inactive) and the GI50 (NCI-H23) was > 100 µM (inactive). The GI50 (NCI-H460) was > 100 µM (inactive), the GI50 (NCI-H522) was > 100 µM (inactive) and the GI50 (NCI/ADR-RES) was > 100 µM (inactive). The GI50 (OVCAR-3) was > 100 µM (inactive), the GI50 (OVCAR-4) was > 100 µM (inactive) and the GI50 (OVCAR-5) was > 100 µM (inactive). For the same molecule, the GI50 (OVCAR-8) was > 100 µM (inactive), the GI50 (PC-3) was > 100 µM (inactive) and the GI50 (RPMI-8226) was > 100 µM (inactive). The GI50 (RXF 393) was > 100 µM (inactive), the GI50 (SF-268) was > 100 µM (inactive) and the GI50 (SF-295) was > 100 µM (inactive). The GI50 (SF-539) was > 100 µM (inactive), the GI50 (SK-MEL-28) was > 100 µM (inactive) and the GI50 (SK-MEL-5) was > 100 µM (inactive). The GI50 (SN12C) was > 100 µM (inactive), the GI50 (SNB-19) was > 100 µM (inactive) and the GI50 (SNB-75) was > 100 µM (inactive). The GI50 (SR) was > 100 µM (inactive), the GI50 (SW-620) was > 100 µM (inactive) and the GI50 (TK-10) was > 100 µM (inactive). For the same molecule, the GI50 (U-251) was > 100 µM (inactive), the GI50 (UACC-257) was > 100 µM (inactive) and the GI50 (UO-31) was 85.1 µM (inactive).

For `O=C1CC(=O)N(C2CCCCC2)C(=O)N1c1ccccc1S(=O)(=O)Oc1ccccc1`, the GI50 (786-0) was 18.1 µM (inactive), the GI50 (A498) was > 100 µM (inactive) and the GI50 (A549) was > 100 µM (inactive). For the same molecule, the GI50 (ACHN) was 19.1 µM (inactive), the GI50 (BT-549) was 49.5 µM (inactive) and the GI50 (CAKI-1) was > 100 µM (inactive). For the same molecule, the GI50 (CCRF-CEM) was 14.9 µM (inactive), the GI50 (COLO 205) was > 100 µM (inactive) and the GI50 (DU-145) was > 100 µM (inactive). For the same molecule, the GI50 (EKVX) was > 100 µM (inactive), the GI50 (HCC 2998) was > 100 µM (inactive) and the GI50 (HCT-116) was > 100 µM (inactive). The GI50 (HCT-15) was > 100 µM, the GI50 (HL-60) was > 100 µM (inactive) and the GI50 (HOP-62) was 33 µM (inactive). The GI50 (HOP-92) was 12.9 µM (inactive), the GI50 (HT-29) was > 100 µM (inactive) and the GI50 (IGROV-1) was 14.9 µM (inactive). The GI50 (K562) was 26.9 µM (inactive), the GI50 (KM12) was > 100 µM (inactive) and the GI50 (LOX IMVI) was 2.59 µM (inactive). For the same molecule, the GI50 (M14) was > 100 µM (inactive), the GI50 (MCF7) was > 100 µM (inactive) and the GI50 (MDA-MB-231) was > 100 µM (inactive). The GI50 (MDA-MB-435) was > 100 µM (inactive), the GI50 (MDA-N) was > 100 µM (inactive) and the GI50 (MOLT-4) was 19.2 µM (inactive). The GI50 (NCI-H460) was > 100 µM (inactive), the GI50 (NCI/ADR-RES) was > 100 µM (inactive) and the GI50 (OVCAR-3) was > 100 µM (inactive). The GI50 (OVCAR-4) was > 100 µM (inactive), the GI50 (OVCAR-5) was > 100 µM (inactive) and the GI50 (OVCAR-8) was > 100 µM (inactive). The GI50 (PC-3) was > 100 µM (inactive), the GI50 (RPMI-8226) was 26.5 µM (inactive) and the GI50 (RXF 393) was > 100 µM (inactive). The GI50 (SF-268) was 90.6 µM (inactive), the GI50 (SF-295) was > 100 µM (inactive) and the GI50 (SF-539) was > 100 µM (inactive). For the same molecule, the GI50 (SK-MEL-28) was > 100 µM (inactive), the GI50 (SK-MEL-2) was > 100 µM (inactive) and the GI50 (SK-MEL-5) was > 100 µM (inactive). The GI50 (SK-OV-3) was > 100 µM (inactive), the GI50 (SN12C) was > 100 µM (inactive) and the GI50 (SNB-19) was > 100 µM (inactive). The GI50 (SNB-75) was > 100 µM (inactive), the GI50 (SR) was > 100 µM (inactive) and the GI50 (SW-620) was > 100 µM (inactive). For the same molecule, the GI50 (T47D) was 85.1 µM (inactive), the GI50 (TK-10) was > 100 µM (inactive) and the GI50 (U-251) was > 100 µM (inactive). The GI50 (UACC-257) was > 100 µM (inactive), the GI50 (UACC-62) was > 100 µM (inactive) and the GI50 (UO-31) was 18.1 µM (inactive).

With `CN1C(=O)N(C)C(O)C(Cl)(Br)C1=O` (stereo not drawn) the GI50 (786-0) was > 100 µM (inactive), the GI50 (A498) was > 100 µM (inactive) and the GI50 (A549) was > 100 µM (inactive). For the same molecule, the GI50 (ACHN) was > 100 µM (inactive), the GI50 (BT-549) was > 100 µM (inactive) and the GI50 (CAKI-1) was > 100 µM (inactive). The GI50 (CCRF-CEM) was > 100 µM (inactive), the GI50 (COLO 205) was > 100 µM (inactive) and the GI50 (DU-145) was > 100 µM (inactive). For the same molecule, the GI50 (EKVX) was > 100 µM (inactive), the GI50 (HCC 2998) was > 100 µM (inactive) and the GI50 (HCT-116) was > 100 µM (inactive). The GI50 (HCT-15) was > 100 µM, the GI50 (HL-60) was > 100 µM (inactive) and the GI50 (HT-29) was > 100 µM (inactive). For the same molecule, the GI50 (Hs-578T) was > 100 µM (inactive), the GI50 (IGROV-1) was > 100 µM (inactive) and the GI50 (K562) was > 100 µM (inactive). The GI50 (KM12) was > 100 µM (inactive), the GI50 (LOX IMVI) was > 100 µM (inactive) and the GI50 (M14) was > 100 µM (inactive). The GI50 (MCF7) was > 100 µM (inactive), the GI50 (MDA-MB-231) was > 100 µM (inactive) and the GI50 (MDA-MB-435) was > 100 µM (inactive). For the same molecule, the GI50 (MDA-N) was > 100 µM (inactive), the GI50 (MOLT-4) was > 100 µM (inactive) and the GI50 (Malme-3M) was > 100 µM (inactive). For the same molecule, the GI50 (NCI-H226) was > 100 µM (inactive), the GI50 (NCI-H23) was > 100 µM (inactive) and the GI50 (NCI-H460) was > 100 µM (inactive). The GI50 (NCI-H522) was > 100 µM (inactive), the GI50 (NCI/ADR-RES) was > 100 µM (inactive) and the GI50 (OVCAR-3) was > 100 µM (inactive). The GI50 (OVCAR-5) was 0.182 µM (active), the GI50 (OVCAR-8) was > 100 µM (inactive) and the GI50 (PC-3) was > 100 µM (inactive). For the same molecule, the GI50 (RPMI-8226) was > 100 µM (inactive), the GI50 (RXF 393) was > 100 µM (inactive) and the GI50 (SF-268) was > 100 µM (inactive). The GI50 (SF-295) was > 100 µM (inactive), the GI50 (SF-539) was > 100 µM (inactive) and the GI50 (SK-MEL-28) was > 100 µM (inactive). For the same molecule, the GI50 (SK-MEL-2) was > 100 µM (inactive), the GI50 (SK-MEL-5) was > 100 µM (inactive) and the GI50 (SK-OV-3) was > 100 µM (inactive). For the same molecule, the GI50 (SN12C) was > 100 µM (inactive), the GI50 (SNB-19) was > 100 µM (inactive) and the GI50 (SNB-75) was > 100 µM (inactive). For the same molecule, the GI50 (SR) was > 100 µM (inactive), the GI50 (SW-620) was > 100 µM (inactive) and the GI50 (TK-10) was > 100 µM (inactive). The GI50 (U-251) was > 100 µM (inactive), the GI50 (UACC-257) was > 100 µM (inactive) and the GI50 (UACC-62) was > 100 µM (inactive). The GI50 (UO-31) was > 100 µM (inactive).
